{
  "source": "paper PMC9944328",
  "about": "(Nature Communications, 2023)",
  "system": "SSTR2 mutants",
  "experiment": "NanoBiT β-arrestin 1 recruitment assay, HEK293 (SSTR2 mutants);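 for Emax: percent of the maximal wild-type SSTR2 response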;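 for Top: percent of maximal wild-type response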",
  "format": "cell-based, human",
  "parameters": "Bottom / Span / Bottom (best-fit) / Span (best-fit) / Best-fit values Bottom / Best-fit values Span / Bottom (best-fit value) / Span (best-fit value):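 percent of maximal wild-type response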",
  "settings": "for EC50: read-out: EC50",
  "experimental": "The NanoBiT β-arrestin 1 recruitment assays were carried out according to the method described previously. […] Human full-length SSTR wild-type and mutant vectors were C-terminally fused with a 15-amino acid flexible linker and the small fragment (SmBiT). HEK293 cells were seeded into six-well microplates at a density of 1.0 × 10^6 cells/well and cultured for 24 h at 37 °C with 5% CO2. After that, cells were co-transfected with pcDNA3.1+ vectors encoding SSTR wild-type or mutants and human β-arrestin 1. After transfecting for 24 h, the transfected cells were suspended and seeded into white 96-well plates, and then cultured at 37 °C overnight. After that the medium in each well was exchanged for 90 μl of 0.01% bovine serum albumin containing 20 μl of 50 μM coelenterazine h (Carbosynth) diluted in the HBSS assay buffer and incubated for 40 min at room temperature. Then, ligands diluted in the assay buffer was added to each well and the luminescence intensity was measured using the Synergy H1 microplate reader and detected at room temperature in a time period. All data presented are means of at least three independent experiments.",
  "key": {"[1]": {"settings": "β-arrestin recruitment, SSTR2 F127(3.37)A, n=3"}, "[2]": {"settings": "β-arrestin recruitment, SSTR2 I195(45.52)A, n=3, ND = not detected"}, "[3]": {"settings": "β-arrestin recruitment, SSTR2 I284ECL3A, n=3"}, "[4]": {"settings": "β-arrestin recruitment, SSTR2 L290(7.31)A, n=3"}, "[5]": {"settings": "β-arrestin recruitment, SSTR2 P286ECL3A, n=3"}, "[6]": {"settings": "β-arrestin recruitment, SSTR2 S279(6.58)A, n=3"}, "[7]": {"settings": "β-arrestin recruitment, SSTR2 S285ECL3A, n=3"}, "[8]": {"settings": "β-arrestin recruitment, SSTR2 T287ECL3A, n=3"}, "[9]": {"settings": "β-arrestin recruitment, SSTR2 V103(2.64)A, n=3, ND = not detected"}, "[10]": {"settings": "β-arrestin recruitment, SSTR2 W188ECL3A, n=3"}, "[11]": {"settings": "β-arrestin recruitment, SSTR2 W269(6.48)A, n=3"}, "[12]": {"settings": "β-arrestin recruitment, SSTR2 Y50(1.39)A, n=3"}, "[13]": {"settings": "β-arrestin recruitment, SSTR2 Y205(5.35)A, n=3"}, "[14]": {"settings": "β-arrestin recruitment, SSTR2 Y302(7.43)A, n=3"}},
  "note": "Read-outs that look alike come from different tables or passages of the source.",
  "data": [
    {"smiles": "C[C@@H](O)[C@@H]1NC(=O)[C@H](CCCCN)NC(=O)[C@@H](Cc2c[nH]c3ccccc23)NC(=O)[C@H](Cc2ccccc2)NC(=O)[C@@H](NC(=O)[C@H](N)Cc2ccccc2)CSSC[C@@H](C(=O)N[C@H](CO)[C@@H](C)O)NC1=O", "note": "[octreotide]", "values": [
      {"measurement": "Bottom", "setting": "best-fit, S285A-3", "value": 9.309},
      {"measurement": "LogEC50", "setting": "best-fit, S285A-3", "value": -8.736},
      {"measurement": "Span", "setting": "best-fit, S285A-3", "value": 80.53},
      {"measurement": "Top", "setting": "best-fit, S285A-3", "value": 89.84},
      {"measurement": "EC50", "setting": "best-fit, S285A-3", "value": 1.84, "unit": "nM"},
      {"measurement": "Bottom", "setting": "best-fit, T194A-1", "value": -0.5401},
      {"measurement": "Top", "setting": "best-fit, T194A-1", "value": 55.89},
      {"measurement": "Bottom", "setting": "best-fit, T194A-2", "value": -0.9576},
      {"measurement": "Top", "setting": "best-fit, T194A-2", "value": 54.95},
      {"measurement": "Bottom", "setting": "best-fit, T194A-3", "value": -0.591},
      {"measurement": "Top", "setting": "best-fit, T194A-3", "value": 56.22},
      {"measurement": "Bottom", "setting": "best-fit, T287A-1", "value": 4.198},
      {"measurement": "LogEC50", "setting": "best-fit, T287A-1", "value": -8.213},
      {"measurement": "Span", "setting": "best-fit, T287A-1", "value": 84.87},
      {"measurement": "Top", "setting": "best-fit, T287A-1", "value": 89.07},
      {"measurement": "EC50", "setting": "best-fit, T287A-1", "value": 6.12, "unit": "nM"},
      {"measurement": "Bottom", "setting": "best-fit, T287A-2", "value": 5.592},
      {"measurement": "LogEC50", "setting": "best-fit, T287A-2", "value": -8.324},
      {"measurement": "Span", "setting": "best-fit, T287A-2", "value": 86.73},
      {"measurement": "Top", "setting": "best-fit, T287A-2", "value": 92.33},
      {"measurement": "EC50", "setting": "best-fit, T287A-2", "value": 4.75, "unit": "nM"},
      {"measurement": "Bottom", "setting": "best-fit, T287A-3", "value": 0.1327},
      {"measurement": "LogEC50", "setting": "best-fit, T287A-3", "value": -8.522},
      {"measurement": "Span", "setting": "best-fit, T287A-3", "value": 80.53},
      {"measurement": "Top", "setting": "best-fit, T287A-3", "value": 80.66},
      {"measurement": "EC50", "setting": "best-fit, T287A-3", "value": 3, "unit": "nM"},
      {"measurement": "LogEC50", "setting": "best-fit, W188A-1", "value": -8.611},
      {"measurement": "Span", "setting": "best-fit, W188A-1", "value": 57.05},
      {"measurement": "Top", "setting": "best-fit, W188A-1", "value": 61.7},
      {"measurement": "EC50", "setting": "best-fit, W188A-1", "value": 2.45, "unit": "nM"},
      {"measurement": "Bottom", "setting": "best-fit, W188A-2", "value": 0.0794},
      {"measurement": "LogEC50", "setting": "best-fit, W188A-2", "value": -8.245},
      {"measurement": "Span", "setting": "best-fit, W188A-2", "value": 81.84},
      {"measurement": "Top", "setting": "best-fit, W188A-2", "value": 81.92},
      {"measurement": "EC50", "setting": "best-fit, W188A-2", "value": 5.69, "unit": "nM"},
      {"measurement": "Bottom", "setting": "best-fit, W188A-3", "value": 6.02},
      {"measurement": "LogEC50", "setting": "best-fit, W188A-3", "value": -8.295},
      {"measurement": "Span", "setting": "best-fit, W188A-3", "value": 58.94},
      {"measurement": "Top", "setting": "best-fit, W188A-3", "value": 64.96},
      {"measurement": "EC50", "setting": "best-fit, W188A-3", "value": 5.07, "unit": "nM"},
      {"measurement": "Emax", "setting": "β-arrestin recruitment, I130A, earlier manuscript version quoted by reviewer, superseded", "value": 60, "unit": "%"},
      {"measurement": "Emax", "setting": "β-arrestin recruitment, SSTR2 D295(7.36)A, detected at 10 μM, n=3", "value": "119.20±34.68", "unit": "%WT"},
      {"measurement": "EC50", "setting": "β-arrestin recruitment, SSTR2 D295(7.36)A, n=3", "value": "319 ± 6.78", "unit": "nM"},
      {"measurement": "Emax", "setting": "[1]", "value": "52.62±2.57", "unit": "%WT"},
      {"measurement": "EC50", "setting": "[1]", "value": "4.33 ± 1.53", "unit": "nM"},
      {"measurement": "Emax", "setting": "β-arrestin recruitment, SSTR2 F208(5.38)A, n=3", "value": "75.93±9.81", "unit": "%WT"},
      {"measurement": "EC50", "setting": "β-arrestin recruitment, SSTR2 F208(5.38)A, n=3, ND = not detected", "value": "163 ± 6.17", "unit": "nM"},
      {"measurement": "Emax", "setting": "β-arrestin recruitment, SSTR2 F265(6.44)A, detected at 10 μM, n=3 octreotide, 4 paltusotine", "value": "67.17±9.75", "unit": "%WT"},
      {"measurement": "Emax", "setting": "β-arrestin recruitment, SSTR2 I130(3.40)A, detected at 10 μM, n=3", "value": "76.52±9.52", "unit": "%WT"},
      {"measurement": "Emax", "setting": "[2]", "value": "59.10±0.47", "unit": "%WT"},
      {"measurement": "EC50", "setting": "[2]", "value": "54.3 ± 4.1", "unit": "nM"},
      {"measurement": "Emax", "setting": "[3]", "value": "89.03±9.00", "unit": "%WT"},
      {"measurement": "EC50", "setting": "[3]", "value": "55.7 ± 2.03", "unit": "nM"},
      {"measurement": "Emax", "setting": "β-arrestin recruitment, SSTR2 L99(2.60)A, n=3", "value": "96.13±25.27", "unit": "%WT"},
      {"measurement": "EC50", "setting": "β-arrestin recruitment, SSTR2 L99(2.60)A, n=3, ND = not detected", "value": "91.6 ± 3.34", "unit": "nM"},
      {"measurement": "Emax", "setting": "[4]", "value": "85.66±1.04", "unit": "%WT"},
      {"measurement": "EC50", "setting": "[4]", "value": 1.8, "unit": "nM"},
      {"measurement": "Emax", "setting": "β-arrestin recruitment, SSTR2 P220(5.50)A, n=3", "value": "61.16±16.24", "unit": "%WT"},
      {"measurement": "EC50", "setting": "β-arrestin recruitment, SSTR2 P220(5.50)A, n=3 octreotide, 4 paltusotine, ND = not detected", "value": "99.8 ± 9", "unit": "nM"},
      {"measurement": "Emax", "setting": "[5]", "value": "76.51±12.11", "unit": "%WT"},
      {"measurement": "EC50", "setting": "[5]", "value": "6.35 ± 1.59", "unit": "nM"},
      {"measurement": "Emax", "setting": "β-arrestin recruitment, SSTR2 Q102(2.63)A, detected at 10 μM, n=3", "value": "57.95±5.20", "unit": "%WT"},
      {"measurement": "Emax", "setting": "[6]", "value": "87.86±7.76", "unit": "%WT"},
      {"measurement": "EC50", "setting": "[6]", "value": "11.9 ± 4.76", "unit": "nM"},
      {"measurement": "Emax", "setting": "[7]", "value": "79.09±5.45", "unit": "%WT"},
      {"measurement": "EC50", "setting": "[7]", "value": 0.84, "unit": "nM"},
      {"measurement": "Emax", "setting": "β-arrestin recruitment, SSTR2 T194(45.51)A, n=3", "value": "55.69±0.38", "unit": "%WT"},
      {"measurement": "EC50", "setting": "β-arrestin recruitment, SSTR2 T194(45.51)A, n=3, ND = not detected", "value": "48.7 ± 3.38", "unit": "nM"},
      {"measurement": "Emax", "setting": "[8]", "value": "87.90±2.95", "unit": "%WT"},
      {"measurement": "EC50", "setting": "[8]", "value": "4.71 ± 8.35", "unit": "nM"},
      {"measurement": "Emax", "setting": "[9]", "value": "84.83±0.26", "unit": "%WT"},
      {"measurement": "EC50", "setting": "[9]", "value": "63.7 ± 5.11", "unit": "nM"},
      {"measurement": "Emax", "setting": "[10]", "value": "69.46±6.21", "unit": "%WT"},
      {"measurement": "EC50", "setting": "[10]", "value": "4.34 ± 9.5", "unit": "nM"},
      {"measurement": "Emax", "setting": "[11]", "value": "33.36±2.81", "unit": "%WT"},
      {"measurement": "EC50", "setting": "[11]", "value": "55.3 ± 1.35", "unit": "nM"},
      {"measurement": "Emax", "setting": "[12]", "value": "61.91±5.26", "unit": "%WT"},
      {"measurement": "EC50", "setting": "[12]", "value": "4.87 ± 3.17", "unit": "nM"},
      {"measurement": "Emax", "setting": "[13]", "value": "108.30±13.91", "unit": "%WT"},
      {"measurement": "EC50", "setting": "[13]", "value": "8.52 ± 5.74", "unit": "nM"},
      {"measurement": "Emax", "setting": "[14]", "value": "109.40±18.82", "unit": "%WT"},
      {"measurement": "EC50", "setting": "[14]", "value": 1.82, "unit": "nM"}
    ]}
  ]
}
